# Experimental data as given in PubChem BioAssay AID1259411 (Chemical Carcinogenesis Research Information System (CCRIS), 2018).
# Calls of active or inactive are those of the source. How the calls were made is not given here.
# System: rodent carcinogenicity bioassays, tumor incidence
# Assay: CCRIS carcinogenicity studies
# In short: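 Archive of carcinogenicity, mutagenicity, tumor promotion and tumor inhibition results drawn from journals, NCI reports and other sources, expert-reviewed; covers 1985-2011 and is no longer updated.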
structure (smiles),measurement,setting,value
[P]#[In],carcinogen call,"Species: MOUSE, Strain/Sex: B6C3F1/FEMALE, Route: INHALATION, Dose: 0, 0.03, 0.1, 0.3 MG/M3 AEROSOL FOR 6 HR/D 5 D/WK FOR 105 WK (CONTROL AND LOW DOSE GROUPS) OR 21 WK (MID AND HIGH DOSE G, Dose: 0, 0.03, 0.1, 0.3 MG/M3 AEROSOL FOR 6 HR/D 5 D/WK FOR 105 WK (CONTROL AND LOW DOSE GROUPS) OR 21 WK (MID AND HIGH DOSE G, Tumor Site: Type of Lesion: LIVER: HEPATOCELLULAR ADENOMA, HEPATOCELLULAR CARCINOMA, HEPATOCELLULAR ADENOMA OR CARCINOMA, LUNG: ALVEOLAR/BRONCHIOLAR",active; positive
same,carcinogen call,"Species: MOUSE, Strain/Sex: B6C3F1/MALE, Route: INHALATION, Dose: 0, 0.03, 0.1, 0.3 MG/M3 AEROSOL FOR 6 HR/D 5 D/WK FOR 105 WK (CONTROL AND LOW DOSE GROUPS) OR 21 WK (MID AND HIGH DOSE G, Dose: 0, 0.03, 0.1, 0.3 MG/M3 AEROSOL FOR 6 HR/D 5 D/WK FOR 105 WK (CONTROL AND LOW DOSE GROUPS) OR 21 WK (MID AND HIGH DOSE G, Tumor Site: Type of Lesion: LIVER: HEPATOCELLULAR ADENOMA, HEPATOCELLULAR CARCINOMA, HEPATOCELLULAR ADENOMA OR CARCINOMA, LUNG: ALVEOLAR/BRONCHIOLAR",active; positive
same,carcinogen call,"Species: RAT, Strain/Sex: F344/FEMALE, Route: INHALATION, Dose: 0, 0.03, 0.1, 0.3 MG/M3 AEROSOL FOR 6 HR/D 5 D/WK FOR 105 WK (CONTROL AND LOW DOSE GROUPS) OR 22 WK (MID AND HIGH DOSE G, Dose: 0, 0.03, 0.1, 0.3 MG/M3 AEROSOL FOR 6 HR/D 5 D/WK FOR 105 WK (CONTROL AND LOW DOSE GROUPS) OR 22 WK (MID AND HIGH DOSE G, Tumor Site: Type of Lesion: ADRENAL MEDULLA: BENIGN PHEOCHROMOCYTOMA, LUNG: ALVEOLAR/BRONCHIOLAR ADENOMA, ALVEOLAR/BRONCHIOLAR CARCINOMA, ALVEOLAR/B",active; positive
same,carcinogen call,"Species: RAT, Strain/Sex: F344/MALE, Route: INHALATION, Dose: 0, 0.03, 0.1, 0.3 MG/M3 AEROSOL FOR 6 HR/D 5 D/WK FOR 105 WK (CONTROL AND LOW DOSE GROUPS) OR 22 WK (MID AND HIGH DOSE G, Dose: 0, 0.03, 0.1, 0.3 MG/M3 AEROSOL FOR 6 HR/D 5 D/WK FOR 105 WK (CONTROL AND LOW DOSE GROUPS) OR 22 WK (MID AND HIGH DOSE G, Tumor Site: Type of Lesion: ADRENAL MEDULLA: BENIGN PHEOCHROMOCYTOMA, BENIGN OR MALIGNANT PHEOCHROMOCYTOMA, LUNG: ALVEOLAR/BRONCHIOLAR ADENOMA, ALVE",active; positive
O[C@H]1[C@@H]2O[C@@H]2c2c(ccc3cc4ccc5ccccc5c4nc23)[C@@H]1O,carcinogen call,"Species: MOUSE, Strain/Sex: CD-1/FEMALE, Route: INTRAPERITONEAL, Dose: 0, 175 NMOL (TOTAL DOSE) ADMINISTERED AS 1/7 OF DOSE WITHIN 24 HR AFTER BIRTH, 2/7 OF DOSE AT 8 D OLD, 4/7 OF DOSE AT 15, Tumor Site: Type of Lesion: LUNG: TUMOR",active; positive
same,carcinogen call,"Species: MOUSE, Strain/Sex: CD-1/MALE, Route: INTRAPERITONEAL, Dose: 0, 175 NMOL (TOTAL DOSE) ADMINISTERED AS 1/7 OF DOSE WITHIN 24 HR AFTER BIRTH, 2/7 OF DOSE AT 8 D OLD, 4/7 OF DOSE AT 15, Tumor Site: Type of Lesion: LIVER: TUMOR",active; positive
Cc1cnc2ccc3c(nc(NO)n3C)c2n1,carcinogen call,"Species: RAT, Strain/Sex: ACI/SEG/MALE, Route: INTRAPERITONEAL, Dose: 0, 50 UMOL/KG BW 2X/WK FOR 10 WK BEGINNING AT 3 D OF AGE (STUDY DURATION: 68 WK), Tumor Site: Type of Lesion: SOFT TISSUE: TUMOR",active; positive
O=P(=O)O,carcinogen call,"Species: RAT, Strain/Sex: F344/FEMALE, Route: INHALATION, Dose: 0, 1, 5, 25 MG/M3 6 HR/D 5 D/WK FOR 24 MO (STUDY DURATION: 24 MO), Dose: 0, 1, 5, 25 MG/M3 6 HR/D 5 D/WK FOR 24 MO (STUDY DURATION: 24 MO)",inactive; negative
same,carcinogen call,"Species: RAT, Strain/Sex: F344/MALE, Route: INHALATION, Dose: 0, 1, 5, 25 MG/M3 6 HR/D 5 D/WK FOR 24 MO (STUDY DURATION: 24 MO), Dose: 0, 1, 5, 25 MG/M3 6 HR/D 5 D/WK FOR 24 MO (STUDY DURATION: 24 MO)",inactive; negative
O=Cc1ccccc1,carcinogen call,"Species: MOUSE, Strain/Sex: B6C3F1/FEMALE, Route: GAVAGE, Dose: 0, 300, 600 MG/KG IN CORN OIL 5 D/WK FOR 103 WK (STUDY DURATION: 104 WK), Dose: 0, 300, 600 MG/KG IN CORN OIL 5 D/WK FOR 103 WK (STUDY DURATION: 104 WK), Tumor Site: Type of Lesion: FORESTOMACH: SQUAMOUS PAPILLOMA",active; positive
same,carcinogen call,"Species: MOUSE, Strain/Sex: B6C3F1/MALE, Route: GAVAGE, Dose: 0, 200, 400 MG/KG IN CORN OIL 5 D/WK FOR 104 WK (STUDY DURATION: 105 WK), Dose: 0, 200, 400 MG/KG IN CORN OIL 5 D/WK FOR 104 WK (STUDY DURATION: 105 WK), Tumor Site: Type of Lesion: FORESTOMACH: SQUAMOUS PAPILLOMA",active; positive
same,carcinogen call,"Species: RAT, Strain/Sex: F344/FEMALE, Route: GAVAGE, Dose: 0, 200, 400 MG/KG IN CORN OIL 5 D/WK FOR 103 WK (STUDY DURATION: 105 WK), Dose: 0, 200, 400 MG/KG IN CORN OIL 5 D/WK FOR 103 WK (STUDY DURATION: 105 WK)",inactive; negative
same,carcinogen call,"Species: RAT, Strain/Sex: F344/MALE, Route: GAVAGE, Dose: 0, 200, 400 MG/KG IN CORN OIL 5 D/WK FOR 103 WK (STUDY DURATION: 105 WK), Dose: 0, 200, 400 MG/KG IN CORN OIL 5 D/WK FOR 103 WK (STUDY DURATION: 105 WK)",inactive; negative
c1ccc2c3c(ccc2c1)-c1cccc2cccc-3c12,carcinogen call,"Species: MOUSE, Route: DERMAL, Tumor Site: Type of Lesion: INTEGUMENTARY SYSTEM (SKIN)",active; positive
same,carcinogen call,"Species: MOUSE, Strain/Sex: CD-1/FEMALE, Route: INTRAPERITONEAL, Dose: 0, 0.11, 0.275, 1.1 UMOL (TOTAL DOSE) ADMINISTERED OVER DAYS 1, 8, AND 15 OF LIFE (STUDY DURATION: 52 WEEKS), Dose: 0, 0.11, 0.275, 1.1 UMOL (TOTAL DOSE) ADMINISTERED OVER DAYS 1, 8, AND 15 OF LIFE (STUDY DURATION: 52 WEEKS), Tumor Site: Type of Lesion: LUNG: ALVEOLAR/BRONCHIOLAR CARCINOMA",active; positive
same,carcinogen call,"Species: MOUSE, Strain/Sex: CD-1/MALE, Route: INTRAPERITONEAL, Dose: 0, 0.11, 0.275, 1.1 UMOL (TOTAL DOSE) ADMINISTERED OVER DAYS 1, 8, AND 15 OF LIFE (STUDY DURATION: 52 WEEKS), Dose: 0, 0.11, 0.275, 1.1 UMOL (TOTAL DOSE) ADMINISTERED OVER DAYS 1, 8, AND 15 OF LIFE (STUDY DURATION: 52 WEEKS), Tumor Site: Type of Lesion: LUNG: ALVEOLAR/BRONCHIOLAR CARCINOMA, LIVER: ADENOMA OR CARCINOMA",active; positive
same,carcinogen call,"Species: RAT, Strain/Sex: OSBORNE-MENDEL/FEMALE, Route: LUNG IMPLANT, Dose: 0, 0.2, 1.0, 5.0 MG IN BEESWAX/TRIOCTANOIN (STUDY DURATION: LIFETIME), Dose: 0, 0.2, 1.0, 5.0 MG IN BEESWAX/TRIOCTANOIN (STUDY DURATION: LIFETIME), Tumor Site: Type of Lesion: LUNG: EPIDERMOID CARCINOMA",active; positive
ClC1=C(Cl)C2(Cl)C3C(Cl)C=CC3C1(Cl)C2(Cl)Cl (stereo unspecified),carcinogen call,"Species: MOUSE, Strain/Sex: B6C3F1/FEMALE, Route: ORAL, Dose: 0, 9, 18 PPM IN DIET, Dose: 0, 9, 18 PPM IN DIET, Tumor Site: Type of Lesion: LIVER: HEPATOCELLULAR CARCINOMA",active; positive
same,carcinogen call,"Species: MOUSE, Strain/Sex: B6C3F1/MALE, Route: ORAL, Dose: 0, 6.1, 13.8 PPM IN DIET, TWA, Dose: 0, 6.1, 13.8 PPM IN DIET, TWA, Tumor Site: Type of Lesion: LIVER: HEPATOCELLULAR CARCINOMA",active; positive
same,carcinogen call,"Species: RAT, Strain/Sex: OSBORNE-MENDEL/FEMALE, Route: ORAL, Dose: 0, 25.7, 51.3 PPM IN DIET FOR 80 WK (STUDY DURATION: 111 WK), Dose: 0, 25.7, 51.3 PPM IN DIET FOR 80 WK (STUDY DURATION: 111 WK), Tumor Site: Type of Lesion: THYROID GLAND: FOLLICULAR CELL CARCINOMA OR ADENOMA",equivocal
same,carcinogen call,"Species: RAT, Strain/Sex: OSBORNE-MENDEL/MALE, Route: ORAL, Dose: 0, 38.9, 77.9 PPM IN DIET, TWA, Dose: 0, 38.9, 77.9 PPM IN DIET, TWA",inactive; negative
